PubChem BioAssay (NCI)
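Assay format: 96-well plates, 48-hour exposure. The concentration for full growth arrest is given as TGI.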

Tests used:
Test in all cases: NCI-60 cell line screen, 48 h
[1] = tested on: KM20L2 colon
[2] = tested on: M19-MEL melanoma
[3] = tested on: DLD-1 colon
[4] = tested on: K-562 leukemia
[5] = tested on: SF-539 CNS
[6] = tested on: SN12C renal
[7] = tested on: SK-MEL-5 melanoma
[8] = tested on: DMS 114 small cell lung
[9] = tested on: HCT-116 colon
[10] = tested on: HOP-62 NSCLC
[11] = tested on: HCC-2998 colon
[12] = tested on: A549 NSCLC
[13] = tested on: EKVX NSCLC
[14] = tested on: OVCAR-8 ovarian
[15] = tested on: LXFL 529 NSCLC
[16] = tested on: U251 CNS
[17] = tested on: UACC-62 melanoma
[18] = tested on: TK-10 renal
[19] = tested on: NCI-H460 lung
[20] = tested on: MALME-3M melanoma
[21] = tested on: SNB-78 CNS
[22] = tested on: MOLT-4 leukemia
[23] = tested on: SNB-75 CNS
[24] = tested on: DMS 273 small cell lung
[25] = tested on: LOX IMVI melanoma
[26] = tested on: IGROV1 ovarian
[27] = tested on: NCI-H23 lung
[28] = tested on: HOP-92 NSCLC
[29] = tested on: CAKI-1 renal
[30] = tested on: NCI-H522 lung
[31] = tested on: SNB-19 CNS
[32] = tested on: HOP-18 NSCLC
[33] = tested on: SF-295 CNS
[34] = tested on: RPMI-8226 leukemia
[35] = tested on: SR leukemia
[36] = tested on: HT29 colon
[37] = tested on: SW-620 colon
[38] = tested on: 786-0 renal
[39] = tested on: OVCAR-4 ovarian
[40] = tested on: SF-268 CNS
[41] = tested on: CCRF-CEM leukemia
[42] = tested on: A498 renal
[43] = tested on: SK-OV-3 ovarian
[44] = tested on: UO-31 renal
[45] = tested on: RXF 393 renal
[46] = tested on: HCT-15 colon
[47] = tested on: M14 melanoma
[48] = tested on: SK-MEL-28 melanoma
[49] = tested on: ACHN renal
[50] = tested on: HL-60(TB) leukemia
[51] = tested on: UACC-257 melanoma
[52] = tested on: OVCAR-3 ovarian
[53] = tested on: KM12 colon
[54] = tested on: OVCAR-5 ovarian
[55] = tested on: SK-MEL-2 melanoma

CCCCCCCCCOC(=S)NCCCCC
TGI [1]: 59.3 µM | TGI [2]: > 100 µM | TGI [3]: > 100 µM | TGI [4]: 84.1 µM | TGI [5]: 41.3 µM | TGI [6]: 74 µM | TGI [7]: 40.7 µM | TGI [8]: 47.4 µM | TGI [9]: 44.8 µM | TGI [10]: 80.9 µM | TGI [11]: > 100 µM | TGI [12]: 81.7 µM | TGI [13]: 86.8 µM | TGI [14]: > 100 µM | TGI [15]: > 100 µM | TGI [16]: 48.6 µM | TGI [17]: 89 µM | TGI [18]: 56.4 µM | TGI [19]: 64 µM | TGI [20]: 63.2 µM | TGI [21]: > 100 µM | TGI [22]: 42.6 µM | TGI [23]: > 100 µM | TGI [24]: 58.3 µM | TGI [25]: 29.4 µM | TGI [26]: > 100 µM | TGI [27]: 68.3 µM | TGI [28]: 53.9 µM | TGI [29]: 73.7 µM | TGI [30]: 46.6 µM | TGI [31]: > 100 µM | TGI [32]: > 100 µM | TGI [33]: > 100 µM | TGI [34]: 40 µM | TGI [35]: 50.6 µM | TGI [36]: 63.4 µM | TGI [37]: > 100 µM | TGI [38]: > 100 µM | TGI [39]: > 100 µM | TGI [40]: > 100 µM | TGI [41]: 63.4 µM | TGI [42]: 59 µM | TGI [43]: 87.7 µM | TGI [44]: 51.1 µM | TGI [45]: 53.6 µM | TGI [46]: 53.9 µM | TGI [47]: 87.9 µM | TGI [48]: > 100 µM | TGI [49]: 69.9 µM | TGI [50]: 39.5 µM | TGI [51]: 62.1 µM

COc1ccc(C[C@H](N)C(=O)N2C[C@@H](CO)C[C@@H](n3cnc4c(N(C)C)ncnc43)C2)cc1
TGI [1]: > 100 µM | TGI [2]: > 100 µM | TGI [52]: > 100 µM | TGI [3]: > 100 µM | TGI [4]: > 100 µM | TGI [5]: > 100 µM | TGI [7]: > 100 µM | TGI [8]: > 100 µM | TGI [9]: > 100 µM | TGI [10]: > 100 µM | TGI [12]: > 100 µM | TGI [13]: > 100 µM | TGI [14]: > 100 µM | TGI [53]: > 100 µM | TGI [15]: > 100 µM | TGI [16]: > 100 µM | TGI [17]: > 100 µM | TGI [18]: > 100 µM | TGI [19]: > 100 µM | TGI [20]: > 100 µM | TGI [21]: > 100 µM | TGI [22]: > 100 µM | TGI [24]: > 100 µM | TGI [25]: > 100 µM | TGI [26]: > 100 µM | TGI [27]: > 100 µM | TGI [28]: > 100 µM | TGI [29]: > 100 µM | TGI [30]: > 100 µM | TGI [31]: > 100 µM | TGI [32]: > 100 µM | TGI [33]: > 100 µM | TGI [34]: > 100 µM | TGI [35]: > 100 µM | TGI [54]: > 100 µM | TGI [36]: > 100 µM | TGI [37]: > 100 µM | TGI [38]: > 100 µM | TGI [40]: > 100 µM | TGI [41]: > 100 µM | TGI [43]: > 100 µM | TGI [44]: > 100 µM | TGI [46]: > 100 µM | TGI [47]: > 100 µM | TGI [55]: > 100 µM | TGI [48]: > 100 µM | TGI [50]: > 100 µM | TGI [51]: > 100 µM
